# Assay results as given in patent US4118506A, “Pharmaceutical compositions containing 1,3-dithiol-2-ylidene malonate derivatives” (Nihon Nohyaku Co., Ltd., priority 1976, dated 1978).
# Experiments:
# [1] = acute oral toxicity to male mice (LD50); conditions: mouse, in vivo
# Source text: Further, these compounds have no detrimental effects on test animals administered therewith, so far as the doses thereof are within an ordinary administration range.
# [2] = system: acute liver damage induced by chloroform; test: protective effect on acute liver damage associated with centrilobular necrosis, chloroform model; format: in vivo, mouse (dd); conditions: chloroform 0.2 ml/kg oral; 100 mg/kg oral 6 h before; 24 h after
# Experimental: (§1) Bromobenzene (hereinafter abbreviated as BB), Dimethylnitrosamine (hereinafter abbreviated as DMN) and chloroform (hereinafter abbreviated as CF) resemble carbon tetrachloride in inducing liver damage associated with centrilobular necrosis.
# (§2) Test compound or anethol trithion was orally administered to animal at the dose of 100 mg/kg. Twenty four hours after it (in the case of dimethylnitrosamine, exceptionally fifteen hours after it) the animals were sacrificed and blood samples were collected. Indices of hepatotoxicity adoptable in each chemical were measured, from which the efficacy of the compound was evaluated.
# CF male mouse 0.2 oral p-GPT activity
# [3] = system: bile flow and excretion of biliary salt; test: cholagogic action: bile flow and biliary salt excretion; format: in vivo, rat (SD-JCL strain); parameters: key to excretion of biliary salt: relative to 1 h pre-drug amount taken as 100
# Experimental: The male rat (4 week-old, SD-JCL strain) was anesthetized with sodium pentobarbital (37.5 mg/kg, intraperitoneal injection). The abdominal cavity was opened through a midline incision. The common bile duct was catheterized with polyethylene tube o.d. 0.8 mm. The catheter was brought to the outside through the abdominal incision wound prior to closing. Bile was collected from the catheter continuously with time intervals of one hour. The quantity of bile produced in one hour was determined by weighing and that of biliary salt was determined by enzymatic method (Ikagaku Jikkenho Koza 1B, Biological Constituents II, edited by Tamino […]). The amount of biliary salts was represented as chloic acid equivalent. In the representation of the results, the quantities of bile and biliary salts produced in one hour prior to the administration of drug were taken as 100. […] As reference, anethol trithion was used.
# [4] = system: glucose metabolic function of liver; test: effect on glucose metabolism (blood sugar); format: in vivo, mouse; conditions: for Blood Sugar: 250 mg/kg oral 6 h before glucose 4.0 g/kg
# Experimental: Methods: The test compounds dissolved in olive oil and administered orally at the dose of 250 mg/kg to the mice. After 6 hours, 4.0 g/kg of glucose was orally administered. The same amount of glucose was given to the control animals. 0.02 ml of blood was taken from caudal vein of the mice at 30, 60, 90 and 120 min. after glucose administration. Blood sugar was measured by the procedure of Somogyi-Nelson. Number of animals used was 5 to 6 mice for each treatment.
# [5] = system: acute liver damage induced by dimethylnitrosamine; test: protective effect on acute liver damage associated with centrilobular necrosis, dimethylnitrosamine model; format: in vivo, mouse (dd); conditions: dimethylnitrosamine 0.05 ml/kg i.p.; 100 mg/kg oral 6 h before; 15 h after
# Experimental: as §1, §2
# DMN male mouse 0.05 intraper-
# [6] = system: fatty liver induced by carbon tetrachloride; test: therapeutic effect on fatty liver, carbon tetrachloride model; format: in vivo, rat (SD strain)
# Experimental: Carbon tetrachloride also induces fatty liver, but the picture of disease differs from the case of ethionine-induced fatty liver. Carbon tetrachloride is generally considered to damage microsome and thereby to inhibit protein synthesis and induce fatty liver.
# Carbon tetrachloride was subcutaneously administered to 36 week-old male rats (SD strain) for 4 days at the dose of 1 ml/kg. The treated animals were left for 3 days after the last administration to maximize the manifestation of fatty liver.
# Administration of Compound 4 was commenced on the fourth day after the administration of carbon tetrachloride was completed. It was orally given everyday for 10 days at the dose of 50 or 250 mg/kg. On the 11th day, the animals were sacrificed by exsanguination. The therapeutic effect was evaluated by determining the content of lipid in the liver (triglyceride and total lipid) and examining the histopathological changes. Triglyceride and total lipid were determined colorimetrically by chromotropic acid method and Bragdon's oxidation method, respectively.
# Indices for the histopathological change is as follows: […]
# [7] = system: cirrhosis induced by carbon tetrachloride; test: therapeutic effect on cirrhosis, carbon tetrachloride; format: in vivo, rat (SD-strain); conditions: therapeutic group, diet 2000 ppm
# Source text: Almost all the liver diseases induced by various causes are considered to advance, finally, to cirrhosis. Cirrhosis is a final stage of liver damage, which is difficult to classify from the causal viewpoint. Usually, experimental cirrhosis is induced by long-term repeated administration of carbon tetrachloride. The therapeutic effect of the compounds of this invention on cirrhosis, which had been caused by carbon tetrachloride administration, was examined.
# A 10% solution of carbon tetrachloride in olive oil was administered to the male rat (4 week-old SD-strain) intraperitoneally at the dose of 0.5 ml carbon tetrachloride/kg twice a week over a period of 10 weeks, to induce cirrhosis. Four days after the final administration of carbon tetrachloride, the formation of pseudo-lobulus was confirmed. Then the diseased animals were divided into two groups. Therapeutic group was submitted a diet containing 2000 ppm of Compound 4, while the positive control group was submitted a normal diet. Control group, to which olive oil alone had been administered, was submitted a normal diet.
# At 1, 2, 4 and 8 weeks after beginning of Compound 4 feeding, 5 animals from each group were sacrificed, and the therapeutic effect on cirrhosis was evaluated by examining plasma transaminase activity (p-GPT and p-GOT, Reitman-Frankel method) and observing histopathological changes.
# Degree of cirrhosis in the histopathological examination was graded as follows: […]
# [8] = 5 hours after administration, 200 mg/kg oral
# [9] = 50 mg/kg oral everyday for 10 days
smiles,measurement,setting,value
"CC(C)OC(=O)C(C(=O)OC(C)C)=C1SC=CS1 [Compound 4, diisopropyl 1,3-dithiol-2-ylidene malonate]",LD50,[1],3120 mg/kg
same,p-GPT,[2],58 ± 15 Karmen unit
same,excretion of biliary salt,"[3]; 200 mg/kg oral, 1 hour after treatment, before treatment = 100",108 ± 15
same,excretion of biliary salt,"[3]; 200 mg/kg oral, 2 hours after treatment, before treatment = 100",132 ± 25
same,excretion of biliary salt,"[3]; 200 mg/kg oral, 3 hours after treatment, before treatment = 100",138 ± 27
same,excretion of biliary salt,"[3]; 200 mg/kg oral, 4 hours after treatment, before treatment = 100",117 ± 27
same,excretion of biliary salt,"[3]; 200 mg/kg oral, 5 hours after treatment, before treatment = 100",90 ± 21
same,amount of total biliary salts excreted relative to control,[3]; [8],1.7 times
same,quantity of total excreted bile relative to control,[3]; [8],1.2 times
same,excretion of biliary salt,"[3]; before treatment, 1 hour, taken as 100 (normalisation)",100
same,"Blood Sugar, percent of 0 min value",[4]; 0 min,100%
same,Blood Sugar,[4]; 0 min,123 ± 10.9 mg/dL
same,Blood Sugar,[4]; 30 min,282 ± 25.2 mg/dL
same,Blood Sugar,[4]; 60 min,236 ± 19.7 mg/dL
same,Blood Sugar,[4]; 90 min,159 ± 18.3 mg/dL
same,Blood Sugar,[4]; 120 min,138 ± 14.4 mg/dL
same,"Blood Sugar, percent of 0 min value",[4]; 30 min,229%
same,"Blood Sugar, percent of 0 min value",[4]; 60 min,192%
same,"Blood Sugar, percent of 0 min value",[4]; 90 min,129%
same,"Blood Sugar, percent of 0 min value",[4]; 120 min,112%
same,BSP,[5],10 ± 2.0 mg/dL
same,p-GPT,[5],204 ± 44 Karmen unit
same,Total lipid,[6]; [9],78.6 ± 16.8 mg/g-liver
same,Triglyceride,[6]; [9],37.6 ± 8.5 mg/g-liver
same,Total lipid,"[6]; 250 mg/kg, 10 days",64.1 ± 10.2 mg/g-liver
same,Triglyceride,"[6]; 250 mg/kg, 10 days",23.6 ± 7.0 mg/g-liver
same,p-GOT activity,[7]; 1 week,562 ± 119 Karmen unit
same,p-GPT activity,[7]; 1 week,169 ± 30 Karmen unit
same,p-GOT activity,[7]; 2 weeks,182 ± 43 Karmen unit
same,p-GPT activity,[7]; 2 weeks,43 ± 11 Karmen unit
same,p-GOT activity,[7]; 4 weeks,142 ± 48 Karmen unit
same,p-GPT activity,[7]; 4 weeks,45 ± 23 Karmen unit
same,p-GOT activity,[7]; 8 weeks,120 ± 32 Karmen unit
same,p-GPT activity,[7]; 8 weeks,33 ± 20 Karmen unit
